# Assay results reported in patent US20260022143A1, “Cyclic Peptide Inhibitors of IL-23” (JANSSEN PHARMACEUTICA NV, priority 2022, published 2026).
# Starred links: 1 amine or outer side, 2 acyl side, 3 side chain; linkers in the order of their positions; H or OH if unused. Positions of bridges follow the written chain, without caps; N, C: chain ends. Non-standard residues stand in square brackets, D forms with d. Residues, ends and D or L forms follow the SMILES beside them. Groups on a side chain read outwards from the residue. *: point of attachment. Me3N+(CH2)2O(CH2)2O(CH2)2CO = C[N+](C)(C)CCOCCOCCC(=O)*; CH2CH2OCH2CH2OCH2CH2NMe3+ = C[N+](C)(C)CCOCCOCC*; Trp(7-Me) = Cc1cccc2c(C[C@H](N)C(=O)O)c[nH]c12; d(hLys(Me3)) = C[N+](C)(C)CCCCC[C@@H](N)C(=O)O; CH2CH2OCH2CH2NMe3+ = C[N+](C)(C)CCOCC*; γGlu = O=C(O)[C@H](CCC(=O)[*:2])N[*:1]; 2Nal = N[C@@H](Cc1ccc2ccccc2c1)C(=O)O; 3Pal = N[C@@H](Cc1cccnc1)C(=O)O; Myristoyl = CCCCCCCCCCCCCC(=O)*; Lys(Me) = CNCCCC[C@H](N)C(=O)O; NMeK = CN[C@@H](CCCCN)C(=O)O; Pen = CC(C)(S)[C@H](N)C(=O)O; Lauroyl = CCCCCCCCCCCC(=O)*; Thp = NC1(C(=O)O)CCOCC1; X3 = C[N+](C)(C)CCCCC*; AEEA = NCCOCCOCC(=O)O; Sar = CNCC(=O)O
# Experiment: Exposed Polar Surface Area (EPSA)
# Assay type: physicochemical
# Conditions: SFC on Chirex 3014 column; sample 1 mM DMSO stock; read-out: EPSA
# How it was run: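 EPSA, in Å^2, is read from SFC retention time through a linear relationship established with eight calibration standards. Separation uses a Chirex 3014 stationary phase, 35 °C, 14 MPa back pressure, and a 5–60% methanol/ammonium formate modifier gradient in CO2.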
row,Structure (SMILES),EPSA [A^2]
1,"CCCCCCCCCCCC(=O)N[C@@H](CCC(=O)NCCOCCOCC(=O)NCCOCCOCC(=O)NCCCC[C@@H](NC(=O)CCOCCOCC[N+](C)(C)C)C(=O)N[C@@H]1C(=O)N[C@@H](CC(=O)N(C)C)C(=O)N[C@@H]([C@@H](C)O)C(=O)N[C@@H](Cc2c[nH]c3c(C)cccc23)C(=O)N[C@@H](CCCCNC(C)=O)C(=O)N[C@H](C(=O)N[C@@H](Cc2ccc(OCCCCC[N+](C)(C)C)cc2)C(=O)N[C@@H](Cc2ccc3ccccc3c2)C(=O)NC2(C(=O)N[C@@H](CCCCN(C)C(C)=O)C(=O)N[C@@H](CC(N)=O)C(=O)N[C@@H](Cc3cccnc3)C(=O)N(C)[C@@H](CCCCNC(=O)COCCOCCNC(=O)COCCOCCNC(=O)CC[C@H](NC(=O)CCCCCCCCCCC)C(=O)O)C(N)=O)CCOCC2)C(C)(C)SSC1(C)C)C(=O)O [compound 348, cPEG3aCO-k(PEG2PEG2gEC12)-Pen(3)-N(N(Me)2)-T-7MeW-K(Ac)-Pen(3)-TMAPF-2Nal-THP-K(NMeac)-N-3Pya-NMeK(PEG2PEG2gEC12)-CONH2] ({Me3N+(CH2)2O(CH2)2O(CH2)2CO}-[dK]([AEEA-AEEA-γGlu-Lauroyl])[Pen]D(NMe2)T[Trp(7-Me)]K(Ac)[Pen]Y(X3)[2Nal][Thp][Lys(Me)](Ac)N[3Pal][NMeK]([AEEA-AEEA-γGlu-Lauroyl])-NH2; disulfide 2-7)",184
2,"CCCCCCCCCCCCCC(=O)N[C@@H](CCC(=O)NCCOCCOCC(=O)NCCOCCOCC(=O)NCCCC[C@H](NC(=O)C1(NC(=O)[C@H](Cc2ccc3ccccc3c2)NC(=O)[C@H](Cc2ccc(OCCCCC[N+](C)(C)C)cc2)NC(=O)[C@H]2NC(=O)[C@H](CCCCNC(C)=O)NC(=O)[C@H](Cc3c[nH]c4c(C)cccc34)NC(=O)[C@H]([C@@H](C)O)NC(=O)[C@H](CC(=O)N(C)C)NC(=O)[C@@H](NC(=O)CCOCCOCC[N+](C)(C)C)C(C)(C)SSC2(C)C)CCOCC1)C(=O)N[C@@H](CC(N)=O)C(=O)N[C@@H](Cc1cccnc1)C(=O)N(C)[C@@H](CCCCNC(=O)COCCOCCNC(=O)COCCOCCNC(=O)CC[C@H](NC(=O)CCCCCCCCCCCCC)C(=O)O)C(N)=O)C(=O)O [compound 351, cPEG3aCO-Pen(3)-N(N(Me)2)-T-7MeW-K(Ac)-Pen(3)-TMAPF-2Nal-THP-K(PEG2PEG2gEC14)-N-3Pya-NMeK(PEG2PEG2gEC14)-CONH2] ({Me3N+(CH2)2O(CH2)2O(CH2)2CO}-[Pen]D(NMe2)T[Trp(7-Me)]K(Ac)[Pen]Y(X3)[2Nal][Thp]K([AEEA-AEEA-γGlu-Myristoyl])N[3Pal][NMeK]([AEEA-AEEA-γGlu-Myristoyl])-NH2; disulfide 1-6)",184
3,"CCCCCCCCCCCCCC(=O)N[C@@H](CCC(=O)NCCOCCOCC(=O)NCCOCCOCC(=O)NCCCC[C@@H]1NC(=O)[C@H](Cc2c[nH]c3c(C)cccc23)NC(=O)[C@H]([C@@H](C)O)NC(=O)[C@H](CC(=O)N(C)C)NC(=O)[C@@H](NC(=O)CCOCCOCC[N+](C)(C)C)C(C)(C)SSC(C)(C)[C@@H](C(=O)N[C@@H](Cc2ccc(OCCCCC[N+](C)(C)C)cc2)C(=O)N[C@@H](Cc2ccc3ccccc3c2)C(=O)NC2(C(=O)N[C@@H](CCCCN(C)C(C)=O)C(=O)N[C@@H](CC(N)=O)C(=O)N[C@@H](Cc3cccnc3)C(=O)N(C)[C@@H](CCCCNC(=O)COCCOCCNC(=O)COCCOCCNC(=O)CC[C@H](NC(=O)CCCCCCCCCCCCC)C(=O)O)C(N)=O)CCOCC2)NC1=O)C(=O)O [compound 355, cPEG3aCO-Pen(3)-N(N(Me)2)-T-7MeW-K(PEG2PEG2gEC14)-Pen(3)-TMAPF-2Nal-THP-K(NMeac)-N-3Pya-NMeK(PEG2PEG2gEC14)-CONH2] ({Me3N+(CH2)2O(CH2)2O(CH2)2CO}-[Pen]D(NMe2)T[Trp(7-Me)]K([AEEA-AEEA-γGlu-Myristoyl])[Pen]Y(X3)[2Nal][Thp][Lys(Me)](Ac)N[3Pal][NMeK]([AEEA-AEEA-γGlu-Myristoyl])-NH2; disulfide 1-6)",186
4,"CCCCCCCCCCCCCC(=O)N[C@@H](CCC(=O)NCCOCCOCC(=O)NCCOCCOCC(=O)NCCCC[C@@H]1NC(=O)[C@@H](NC(=O)CCOCCOCC[N+](C)(C)C)C(C)(C)SSC(C)(C)[C@@H](C(=O)N[C@@H](Cc2ccc(OCCCCC[N+](C)(C)C)cc2)C(=O)N[C@@H](Cc2ccc3ccccc3c2)C(=O)NC2(C(=O)N[C@@H](CCCCN(C)C(C)=O)C(=O)N[C@@H](CC(N)=O)C(=O)N[C@@H](Cc3cccnc3)C(=O)N(C)[C@@H](CCCCNC(=O)COCCOCCNC(=O)COCCOCCNC(=O)CC[C@H](NC(=O)CCCCCCCCCCCCC)C(=O)O)C(N)=O)CCOCC2)NC(=O)[C@H](CCCCNC(C)=O)NC(=O)[C@H](Cc2c[nH]c3c(C)cccc23)NC(=O)[C@H]([C@@H](C)O)NC1=O)C(=O)O [compound 357, cPEG3aCO-Pen(3)-K(PEG2PEG2gEC14)-T-7MeW-K(Ac)-Pen(3)-TMAPF-2Nal-THP-K(NMeac)-N-3Pya-NMeK(PEG2PEG2gEC14)-CONH2] ({Me3N+(CH2)2O(CH2)2O(CH2)2CO}-[Pen]K([AEEA-AEEA-γGlu-Myristoyl])T[Trp(7-Me)]K(Ac)[Pen]Y(X3)[2Nal][Thp][Lys(Me)](Ac)N[3Pal][NMeK]([AEEA-AEEA-γGlu-Myristoyl])-NH2; disulfide 1-6)",181
5,"CC(=O)N(C)CCCC[C@@H]1NC(=O)[C@H](Cc2c[nH]c3c(C)cccc23)NC(=O)[C@H]([C@@H](C)O)NC(=O)[C@H](CC(=O)N(C)C)NC(=O)[C@@H](NC(=O)CCOCCOCC[N+](C)(C)C)C(C)(C)SSC(C)(C)[C@@H](C(=O)N[C@@H](Cc2ccc(OCCOCCOCC[N+](C)(C)C)cc2)C(=O)N[C@@H](Cc2ccc3ccccc3c2)C(=O)NC2(C(=O)N[C@@H](CCCCN(C)C(C)=O)C(=O)N[C@@H](CC(N)=O)C(=O)N[C@@H](Cc3cccnc3)C(=O)N(C)CC(N)=O)CCOCC2)NC1=O [compound 363, cPEG3aCO-Pen(3)-N(N(Me)2)-T-7MeW-K(NMeAc)-Pen(3)-APEG3F-2Nal-THP-K(NMeAc)-N-3Pya-Sar-CONH2] ({Me3N+(CH2)2O(CH2)2O(CH2)2CO}-[Pen]D(NMe2)T[Trp(7-Me)][Lys(Me)](Ac)[Pen]Y(CH2CH2OCH2CH2OCH2CH2NMe3+)[2Nal][Thp][Lys(Me)](Ac)N[3Pal][Sar]-NH2; disulfide 1-6)",155
6,CC(=O)N[C@@H]1C(=O)N[C@@H](COCCOCC[N+](C)(C)C)C(=O)N[C@@H]([C@@H](C)O)C(=O)N[C@@H](Cc2c[nH]c3c(C)cccc23)C(=O)N[C@@H](CCCCN(C)C(C)=O)C(=O)N[C@H](C(=O)N[C@@H](Cc2ccc(OCCOCCOCC[N+](C)(C)C)cc2)C(=O)N[C@@H](Cc2ccc3ccccc3c2)C(=O)NC2(C(=O)N[C@@H](CCCCN(C)C(C)=O)C(=O)N[C@@H](CC(N)=O)C(=O)N[C@@H](Cc3cccnc3)C(=O)N(C)CC(=O)N(C)C)CCOCC2)C(C)(C)SSC1(C)C [compound 365] (Ac-[Pen]S(CH2CH2OCH2CH2NMe3+)T[Trp(7-Me)][Lys(Me)](Ac)[Pen]Y(CH2CH2OCH2CH2OCH2CH2NMe3+)[2Nal][Thp][Lys(Me)](Ac)N[3Pal][Sar]-NMe2; disulfide 1-6),150
7,"CCCCCCCCCCCCCC(=O)N[C@@H](CCC(=O)NCCOCCOCC(=O)NCCOCCOCC(=O)NCCCC[C@@H]1NC(=O)[C@@H](NC(=O)[C@@H](CCCCC[N+](C)(C)C)NC(=O)COCCOCCNC(=O)COCCOCCNC(=O)CC[C@H](NC(=O)CCCCCCCCCCCCC)C(=O)O)C(C)(C)SSC(C)(C)[C@@H](C(=O)N[C@@H](Cc2ccc(OCCCCC[N+](C)(C)C)cc2)C(=O)N[C@@H](Cc2ccc3ccccc3c2)C(=O)NC2(C(=O)N[C@@H](CCCCN(C)C(C)=O)C(=O)N[C@@H](CC(N)=O)C(=O)N[C@@H](Cc3cccnc3)C(=O)N(C)CC(=O)N(C)C)CCOCC2)NC(=O)[C@H](CCCCN(C)C(C)=O)NC(=O)[C@H](Cc2c[nH]c3c(C)cccc23)NC(=O)[C@H]([C@@H](C)O)NC1=O)C(=O)O [compound 374, C14gEPEG2PEG2CO-hk(Me)3-Pen(3)-K(PEG2PEG2gEC14)-T-7MeW-K(NMeAc)-Pen(3)-TMAPF-2Nal-THP-K(NMeAc)-N-3Pya-Sar-CON(Me)2] ({Myristoyl-γGlu-AEEA-AEEA}-[d(hLys(Me3))][Pen]K([AEEA-AEEA-γGlu-Myristoyl])T[Trp(7-Me)][Lys(Me)](Ac)[Pen]Y(X3)[2Nal][Thp][Lys(Me)](Ac)N[3Pal][Sar]-NMe2; disulfide 2-7)",170
8,"CCCCCCCCCCCCCC(=O)N[C@@H](CCC(=O)NCCOCCOCC(=O)NCCOCCOCC(=O)NCCCC[C@H](NC(=O)C1(NC(=O)[C@H](Cc2ccc3ccccc3c2)NC(=O)[C@H](Cc2ccc(OCCCCC[N+](C)(C)C)cc2)NC(=O)[C@H]2NC(=O)[C@H](CCCCN(C)C(C)=O)NC(=O)[C@H](Cc3c[nH]c4c(C)cccc34)NC(=O)[C@H]([C@@H](C)O)NC(=O)[C@H](CC(=O)N(C)C)NC(=O)[C@@H](NC(=O)[C@@H](CCCCC[N+](C)(C)C)NC(=O)COCCOCCNC(=O)COCCOCCNC(=O)CC[C@H](NC(=O)CCCCCCCCCCCCC)C(=O)O)C(C)(C)SSC2(C)C)CCOCC1)C(=O)N[C@@H](CC(N)=O)C(=O)N[C@@H](Cc1cccnc1)C(=O)N(C)CC(=O)N(C)C)C(=O)O [compound 376, C14gEPEG2PEG2CO-hk(Me)3-Pen(3)-N(N(Me)2)-T-7MeW-K(NMeAc)-Pen(3)-TMAPF-2Nal-THP-K(PEG2PEG2gEC14)-N-3Pya-Sar-CON(Me)2] ({Myristoyl-γGlu-AEEA-AEEA}-[d(hLys(Me3))][Pen]D(NMe2)T[Trp(7-Me)][Lys(Me)](Ac)[Pen]Y(X3)[2Nal][Thp]K([AEEA-AEEA-γGlu-Myristoyl])N[3Pal][Sar]-NMe2; disulfide 2-7)",176
